Calls of active or inactive are those of the source.
Experiments:
[1] = target: Peroxisome proliferator-activated receptor gamma/Nuclear receptor coactivator 2 (Homo sapiens, UniProt P37231); format: functional;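 note: agonist potency for raising coactivator recruitment to the receptor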
[2] = target: Peroxisome proliferator-activated receptor gamma/Nuclear receptor coactivator 3 (Homo sapiens, UniProt P37231); format: functional;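 note: agonist potency for raising coactivator recruitment to the receptor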
[3] = target: Peroxisome proliferator-activated receptor gamma/Nuclear receptor coactivator 1 (Homo sapiens, UniProt P37231); format: functional;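 note: agonist potency as compounds enhance coactivator SRC-1 recruitment to PPARgamma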
[4] = target: T1, Zinc finger protein mex-5 (Caenorhabditis elegans, UniProt Q9XUB2); assay: potency of MEX-5 RNA-binding blockers – biochemical, C. elegans, fluorescence polarization, dose response (AID 1960)
T1 sequence (Q9XUB2 whole entry): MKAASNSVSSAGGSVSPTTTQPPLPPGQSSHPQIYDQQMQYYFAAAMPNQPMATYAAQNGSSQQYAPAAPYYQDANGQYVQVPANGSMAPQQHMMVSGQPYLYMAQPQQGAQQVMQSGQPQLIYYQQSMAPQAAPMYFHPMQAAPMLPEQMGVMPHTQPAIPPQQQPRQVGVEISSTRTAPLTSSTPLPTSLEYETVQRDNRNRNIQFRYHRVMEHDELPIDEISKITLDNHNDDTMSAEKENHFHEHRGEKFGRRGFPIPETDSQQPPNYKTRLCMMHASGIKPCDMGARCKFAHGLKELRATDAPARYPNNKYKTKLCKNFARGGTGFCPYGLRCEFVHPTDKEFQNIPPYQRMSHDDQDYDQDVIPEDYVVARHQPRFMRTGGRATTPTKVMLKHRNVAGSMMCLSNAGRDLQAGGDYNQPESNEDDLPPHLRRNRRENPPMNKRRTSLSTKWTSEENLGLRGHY

[5] = target: T2, Rac GTPase-activating protein 1 (Homo sapiens, UniProt Q9H0H5); assay: blockers of MgcRacGAP-driven Rac1 GTP hydrolysis – biochemical, ADP Hunter fluorescence, primary and confirmatory, confirmation (AID 624330); format: functional
T2 sequence (Q9H0H5 whole entry): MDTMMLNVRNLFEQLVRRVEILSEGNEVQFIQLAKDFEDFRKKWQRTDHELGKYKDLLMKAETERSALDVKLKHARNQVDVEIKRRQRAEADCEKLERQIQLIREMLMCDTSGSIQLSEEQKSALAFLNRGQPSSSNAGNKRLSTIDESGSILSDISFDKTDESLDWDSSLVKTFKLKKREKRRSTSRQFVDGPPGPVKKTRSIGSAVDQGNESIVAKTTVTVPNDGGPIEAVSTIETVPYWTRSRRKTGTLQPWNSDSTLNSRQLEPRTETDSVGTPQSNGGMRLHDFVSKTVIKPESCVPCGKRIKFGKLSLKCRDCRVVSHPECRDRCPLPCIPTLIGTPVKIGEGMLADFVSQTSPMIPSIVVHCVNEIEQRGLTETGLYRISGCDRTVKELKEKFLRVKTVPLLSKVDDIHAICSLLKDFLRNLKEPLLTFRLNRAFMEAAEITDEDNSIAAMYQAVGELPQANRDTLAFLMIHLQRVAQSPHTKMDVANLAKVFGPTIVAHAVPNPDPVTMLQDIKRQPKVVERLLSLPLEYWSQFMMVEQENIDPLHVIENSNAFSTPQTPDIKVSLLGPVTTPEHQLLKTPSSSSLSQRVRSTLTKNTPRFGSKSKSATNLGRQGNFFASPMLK

[6] = target: T3, RNA-binding protein pos-1 (Caenorhabditis elegans, UniProt G5EF15); assay: disruptors of C. elegans POS-1 RNA interaction – biochemical, fluorescence polarization, dose response (AID 1964);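 note: purified POS-1 fused to maltose binding protein made in E. coli; potency of compounds blocking POS-1 binding to fluorescent RNA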
T3 sequence (G5EF15 whole entry): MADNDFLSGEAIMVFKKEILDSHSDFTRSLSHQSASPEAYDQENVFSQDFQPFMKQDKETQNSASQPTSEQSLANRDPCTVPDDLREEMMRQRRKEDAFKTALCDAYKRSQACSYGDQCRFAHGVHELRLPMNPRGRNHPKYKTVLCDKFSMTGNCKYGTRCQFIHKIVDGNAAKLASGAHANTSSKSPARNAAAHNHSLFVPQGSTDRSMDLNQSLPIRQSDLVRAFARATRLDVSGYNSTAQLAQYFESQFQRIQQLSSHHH

Genome polyprotein = Genome polyprotein (dengue virus type 2, UniProt P29990); assay: flavivirus cap methylation enzyme inhibition – biochemical, confirmation dose response, primary screen (AID 588689); format: functional
Prothrombin = Prothrombin (Homo sapiens, UniProt P00734); assay: Thrombin 1536 HTS Dose Response Confirmation. [Related pubchem assays: 1046 (Thrombin 1536 HTS; hits were confirmed in this assay)]; format: functional
[7] = target: T4, Corticotropin-releasing factor receptor 2/Corticotropin-releasing factor-binding protein (Homo sapiens, UniProt P24387+Q13324); assay: activators of CRF receptor 2 with binding protein – uHTS hits, confirmation (AID 602473); format: functional; settings: read-out: EC50_Mean
T4 sequence (Q13324 whole entry): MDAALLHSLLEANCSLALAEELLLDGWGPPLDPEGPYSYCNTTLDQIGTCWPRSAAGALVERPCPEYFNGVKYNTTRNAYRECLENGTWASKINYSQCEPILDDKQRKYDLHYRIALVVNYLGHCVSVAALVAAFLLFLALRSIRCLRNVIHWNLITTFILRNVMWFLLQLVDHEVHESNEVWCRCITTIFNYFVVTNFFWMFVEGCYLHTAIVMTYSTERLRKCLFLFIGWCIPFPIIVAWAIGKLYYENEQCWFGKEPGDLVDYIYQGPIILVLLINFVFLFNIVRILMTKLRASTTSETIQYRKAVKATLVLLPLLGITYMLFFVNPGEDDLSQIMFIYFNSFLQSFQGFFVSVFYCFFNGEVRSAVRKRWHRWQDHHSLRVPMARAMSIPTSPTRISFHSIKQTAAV
T4 sequence (P24387 whole entry): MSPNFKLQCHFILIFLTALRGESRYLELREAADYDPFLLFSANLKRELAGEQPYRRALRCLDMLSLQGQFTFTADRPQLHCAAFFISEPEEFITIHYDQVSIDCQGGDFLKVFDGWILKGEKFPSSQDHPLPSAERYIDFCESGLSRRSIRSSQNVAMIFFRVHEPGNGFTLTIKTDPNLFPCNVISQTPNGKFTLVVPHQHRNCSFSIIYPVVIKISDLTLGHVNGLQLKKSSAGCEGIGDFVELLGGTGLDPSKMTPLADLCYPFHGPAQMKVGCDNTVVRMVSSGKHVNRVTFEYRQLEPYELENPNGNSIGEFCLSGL

[8] = test system: Streptococcus sp. 'group A'; assay: Streptococcus pyogenes SK(-)GAS viability under kanamycin – luminescence, BacTiterGlo, confirmation, counter-screen for streptokinase expression inhibitor project, dose response (AID 1900); format: functional, organism-based
X-box-binding protein 1 = target: T5, X-box-binding protein 1 (Homo sapiens, UniProt P17861); format: functional, Cricetulus griseus;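 note: confirmatory dose-response counter-screen serving a CHOP assay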
T5 sequence (P17861 whole entry): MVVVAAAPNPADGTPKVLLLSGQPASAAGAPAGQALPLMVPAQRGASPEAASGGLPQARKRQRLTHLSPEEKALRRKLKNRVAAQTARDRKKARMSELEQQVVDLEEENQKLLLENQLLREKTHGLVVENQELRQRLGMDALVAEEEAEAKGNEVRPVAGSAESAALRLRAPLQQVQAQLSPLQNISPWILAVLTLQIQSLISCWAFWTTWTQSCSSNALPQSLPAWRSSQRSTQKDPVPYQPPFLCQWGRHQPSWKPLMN

[9] = target: T6, Calpain-2 catalytic subunit (Sus scrofa, UniProt P43367); assay: m-calpain protease blockers, concentration series – biochemical, fluorogenic peptide substrate, dose response (AID 1420); format: functional
T6 sequence (P43367 whole entry): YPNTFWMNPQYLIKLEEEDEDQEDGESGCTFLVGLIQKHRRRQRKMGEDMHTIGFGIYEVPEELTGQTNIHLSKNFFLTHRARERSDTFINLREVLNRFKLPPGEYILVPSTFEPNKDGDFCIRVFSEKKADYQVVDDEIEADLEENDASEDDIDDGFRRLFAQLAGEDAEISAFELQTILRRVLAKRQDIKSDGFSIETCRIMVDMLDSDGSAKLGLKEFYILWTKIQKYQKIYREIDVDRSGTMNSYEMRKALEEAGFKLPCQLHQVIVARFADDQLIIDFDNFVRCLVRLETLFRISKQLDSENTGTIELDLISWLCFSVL

INS1 = assay: INS-1E survival protection against cytokine death – cell-based, luminescence, retest, dose response (AID 449756); format: functional; settings: Rattus norvegicus;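 note: cell death triggered by IL-1 beta plus TNF-alpha plus IFN-gamma mixture; protective hits raise ATP signal compared with cytokine alone wells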
Streptokinase A = target: T7, Streptokinase A (Streptococcus pyogenes serotype M1, UniProt P10520); assay: viability-normalized secreted streptokinase activity reduction – plasminogen activation absorbance, OD405, dose response (AID 1914); format: functional, Streptococcus pyogenes M1 GAS;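 note: secreted streptokinase activity via plasminogen activation per viability signal from cell pellet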
T7 sequence (P10520 whole entry): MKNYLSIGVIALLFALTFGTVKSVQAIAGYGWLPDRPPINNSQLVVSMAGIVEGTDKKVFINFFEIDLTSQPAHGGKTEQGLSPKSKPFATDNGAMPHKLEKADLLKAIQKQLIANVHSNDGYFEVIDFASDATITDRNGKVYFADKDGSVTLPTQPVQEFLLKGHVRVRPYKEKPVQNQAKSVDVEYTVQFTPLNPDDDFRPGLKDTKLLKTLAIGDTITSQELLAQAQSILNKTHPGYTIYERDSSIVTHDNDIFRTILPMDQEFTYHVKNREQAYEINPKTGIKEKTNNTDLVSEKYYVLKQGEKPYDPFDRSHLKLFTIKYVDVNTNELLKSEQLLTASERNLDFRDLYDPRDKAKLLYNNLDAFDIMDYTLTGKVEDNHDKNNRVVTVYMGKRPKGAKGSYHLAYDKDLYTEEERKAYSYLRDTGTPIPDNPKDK

Streptococcus = assay: GAS UMAA2166 growth inhibition – luminescence, BacTiterGlo, counter-screen for streptokinase expression inhibitor project, dose response (AID 1915); format: functional, organism-based;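 note: potency for reduction of bacterial viability or growth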
[10] = target: Heat shock protein HSP 90-alpha (Homo sapiens, UniProt P07900); format: functional, organism-based
[11] = non-specific 3'UTR reporter inhibition in Clone20-Shn3RL – cell-based, Renilla luciferase, cherry-picked, counter-screen for Shn3 inhibitor project, dose response (AID 624133); format: functional
[12] = reduction of Shn3 3'UTR-driven luciferase in osteoblasts – cell-based, Clone20 osteoblasts, firefly luciferase, cherry-picked, dose response (AID 624132); format: functional;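 note: firefly luciferase luminescence from reporter carrying the Shn3 3'UTR in osteoblasts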
[13] = loss of viability in HepG2 cells – cell-based, CellTiter-Glo, cherry-picked, cytotoxicity control for Shn3 inhibitor project, dose response (AID 624134); format: functional
[14] = target: T8, Microphthalmia-associated transcription factor (Homo sapiens, UniProt O75030); assay: reducers of TRPM1 reporter luminescence, concentration series – cell-based, SK-MEL-5, cherry-picked, set 3, MITF inhibitor project, dose response (AID 493073); format: functional;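 note: SK-MEL-5 melanoma cells with luciferase driven by the MITF target TRPM1 promoter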
T8 sequence (O75030 whole entry): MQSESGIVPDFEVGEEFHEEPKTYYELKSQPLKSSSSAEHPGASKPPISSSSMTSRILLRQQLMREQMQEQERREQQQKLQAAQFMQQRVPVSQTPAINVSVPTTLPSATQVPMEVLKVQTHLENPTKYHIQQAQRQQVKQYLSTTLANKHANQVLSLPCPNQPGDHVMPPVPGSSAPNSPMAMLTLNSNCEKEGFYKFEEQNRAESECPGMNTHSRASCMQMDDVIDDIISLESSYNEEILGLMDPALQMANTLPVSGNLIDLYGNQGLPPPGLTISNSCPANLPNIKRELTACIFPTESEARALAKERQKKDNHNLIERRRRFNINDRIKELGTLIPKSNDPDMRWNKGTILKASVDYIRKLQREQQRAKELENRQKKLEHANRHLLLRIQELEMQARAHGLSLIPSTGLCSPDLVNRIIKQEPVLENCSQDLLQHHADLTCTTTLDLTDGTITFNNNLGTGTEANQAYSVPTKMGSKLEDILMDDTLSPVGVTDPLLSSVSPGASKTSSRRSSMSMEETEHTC

[15] = target: T4, Corticotropin-releasing factor receptor 2/Corticotropin-releasing factor-binding protein; assay: Dose Response confirmation of uHTS hits for small molecule antagonists of the CRF-binding protein and CRF-R2 receptor complex.; format: functional; settings: read-out: IC50_Mean
[16] = blockers of CRF-binding protein–CRF-R2 complex – cell-based, uHTS hits, 384-well, dose response (AID 651639); format: functional, Homo sapiens; settings: read-out: IC50_Mean

Structure (SMILES): C=CCn1c(Cc2cccs2)nnc1SCC(=O)c1ccc(F)cc1
- EC50 [1]: > 79.4 µM (not active)
- EC50 [2]: > 79.4 µM (not active)
- EC50 [3]: > 79.4 µM (not active)

Structure (SMILES): CSc1sccc1/C=C(/C#N)C(=O)c1ccco1
- EC50 [4]: > 300 µM (not active)
- IC50 [5]: 22.8 µM (active)
- EC50 [6]: > 300 µM (not active)
- IC50 (Genome polyprotein): > 100 µM (active)

Structure (SMILES): Cc1ccc(C2C=C(c3ccccc3)Nc3nc(N4C(=O)CCC4=O)nn32)cc1 (stereo not given)
- IC50 (Prothrombin): 10.9 µM (active)
- EC50 [7]: > 53 µM (inactive)

Structure (SMILES): O=[N+]([O-])c1ccc(NC(S)=NCCc2ccc(Cl)cc2)cc1
- EC50 [8]: 2.92 µM (active)
- Absolute IC50 (XBP1) (X-box-binding protein 1): 10 µM
- IC50 [9]: 1.82 µM (not active)
- AC50 (INS1): 7.38 µM (active)
- EC50 (Streptokinase A): 18.9 µM (active)
- EC50 (Streptococcus): 33.2 µM (active)
- AC50 [10]: 4.1 µM (active)

Structure (SMILES): Cn1cccc1C(=O)NC(=O)COC(=O)c1ccc(S(C)(=O)=O)c([N+](=O)[O-])c1
- AC50 [11]: 13.6 µM (active)
- AC50 [12]: 15.1 µM (active)
- AC50 [13]: 26 µM (active)
- AC50 [14]: 9.23 µM (active)

Structure (SMILES): O=C(Nc1ccccc1C(=O)O)c1cccc(C(=O)Nc2ccccc2C(=O)O)c1
- IC50 (Genome polyprotein): 54.9 µM (active)

Structure (SMILES): O=[N+]([O-])c1cc(-c2ccccc2)cc([N+](=O)[O-])c1O
- IC50 [15]: 9.96 µM (active)
- IC50 [16]: > 20 µM (inactive)
- IC50 (Genome polyprotein): 58.8 µM (active)
- EC50 [7]: > 53 µM (inactive)

Reference: ChEMBL document CHEMBL1201862, “PubChem BioAssay data set” (2004)
